According to patent publication US9663527B2, “Factor XIa inhibitors” (Merck Sharp & Dohme Corp., priority 2014, dated 2017):
Where a name gives a salt, the structure may show the parent alone.

Target: purified human Factor XIa (Homo sapiens (Human), UniProt P03951)
Test: Factor XIa Assay
Assay type: biochemical
Settings: purified human Factor XIa 40 pM, substrate Z-Gly-Pro-Arg-AFC 100 μM, pH 7.4; read-out: hFactor XIa Ki
Description: The effectiveness of a compound of the present invention as an inhibitor of Coagulation Factor XIa can be determined using a relevant purified serine protease, and an appropriate synthetic substrate. The rate of hydrolysis of the chromogenic or fluorogenic substrate by the relevant serine protease was measured both in the absence and presence of compounds of the present invention. Assays were conducted at room temperature or at 37° C. […] A decrease in the rate of fluorescence change in the presence of inhibitor is indicative of enzyme inhibition. Such methods are known to one skilled in the art. The results of this assay are expressed as the inhibitory constant, Ki.
Factor XIa determinations were made in 50 mM HEPES buffer at pH 7.4 containing 150 mM NaCl, 5 mM CaCl2, and 0.1% PEG 8000 (polyethylene glycol; JT Baker or Fisher Scientific). Determinations were made using purified human Factor XIa at a final concentration of 40 pM (Sekisui Diagnostics) and the synthetic substrate, Z-Gly-Pro-Arg-AFC, TFA salt (Sigma #C0980) at a concentration of 100 μM.
Activity assays were performed by diluting a stock solution of substrate at least tenfold to a final concentration ≦0.1 Km into a solution containing enzyme or enzyme equilibrated with inhibitor. Times required to achieve equilibration between enzyme and inhibitor were determined in control experiments. Initial velocities of product formation in the absence (Vo) or presence of inhibitor (Vi) were measured. Assuming competitive inhibition, and that unity is negligible compared Km/[S], [I]/e, and [I]/e (where [S], [I], and e respectively represent the total concentrations, of substrate, inhibitor and enzyme), the equilibrium constant (Ki) for dissociation of the inhibitor from the enzyme can be obtained from the dependence of Vo/Vi on [I] shown in the following equation. Vo/Vi=1+[I]/Ki

Sequence of purified human Factor XIa (P03951 388-625): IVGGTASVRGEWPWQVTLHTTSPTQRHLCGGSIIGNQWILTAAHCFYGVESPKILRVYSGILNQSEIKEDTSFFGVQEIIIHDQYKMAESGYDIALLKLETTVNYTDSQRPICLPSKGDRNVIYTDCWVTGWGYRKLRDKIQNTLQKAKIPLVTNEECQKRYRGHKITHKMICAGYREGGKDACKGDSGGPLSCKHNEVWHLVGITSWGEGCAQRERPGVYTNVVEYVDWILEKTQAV
Sequence of purified human Factor XIa (P03951 19-387 partner): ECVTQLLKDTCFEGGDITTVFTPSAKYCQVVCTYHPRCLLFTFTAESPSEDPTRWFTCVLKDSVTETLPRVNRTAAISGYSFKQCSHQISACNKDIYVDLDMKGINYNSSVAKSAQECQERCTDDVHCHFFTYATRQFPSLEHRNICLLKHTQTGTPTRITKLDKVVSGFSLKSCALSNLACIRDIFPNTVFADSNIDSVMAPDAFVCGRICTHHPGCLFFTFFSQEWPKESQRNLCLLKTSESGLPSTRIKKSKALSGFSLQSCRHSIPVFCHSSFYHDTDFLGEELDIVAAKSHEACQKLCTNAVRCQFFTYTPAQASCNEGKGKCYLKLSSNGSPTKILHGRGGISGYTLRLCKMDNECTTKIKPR

| Ki | SMILES |
| --- | --- |
| 2.4 nM | COC(=O)Nc1ccc2c(c1)NC(=O)CCCC[C@H](N1CCc3cc(CN)ccc3C1=O)c1nc-2c[nH]1 [Example 1, Methyl [(7S)-7-[6-(aminomethyl)-1-oxo-3,4-dihydroisoquinolin-2(1H)-yl]-2-oxo-1,2,3,4,5,6,7,9-octahydro-11,8-(azeno)-1,9-benzodiazacyclotridecin-14-yl]carbamate] |
| 170 nM | NCc1ccc2c(c1)CCN([C@H]1CCCCC(=O)Nc3ccc(F)cc3-c3ccnc1c3)C2=O [Example 4, 9-(6-(aminomethyl)-1-oxo-3,4-dihydroisoquinolin-2(1H)-yl)-2^5-fluoro-3-aza-1(4,2)-pyridina-2(1,2)-benzenacyclononaphan-4-one] |
| 70 nM | COC(=O)Nc1ccc2c(c1)NC(=O)CCCC[C@H](N1Cc3cc(CN)ccc3C1=O)c1nc-2c[nH]1 [Example 3, Methyl [(7S)-7-[5-(aminomethyl)-1-oxo-1,3-dihydro-2H-isoindol-2-yl]-2-oxo-1,2,3,4,5,6,7,9-octahydro-11,8-(azeno)-1,9-benzodiazacyclotridecin-14-yl]carbamate] |
| 3.9 nM | COC(=O)Nc1ccc2c(c1)NC(=O)CCCC[C@H](N1CCCc3cc(CN)ccc3C1=O)c1nc-2c[nH]1 [Example 2, Methyl [(7S)-7-[7-(aminomethyl)-1-oxo-1,3,4,5-tetrahydro-2H-2-benzazepin-2-yl]-2-oxo-1,2,3,4,5,6,7,9-octahydro-11,8-(azeno)-1,9-benzodiazacyclotridecin-14-yl]carbamate trifluoroacetate] |
